Data: patent publication US8394848B2, “Compounds that modulate intracellular calcium” (Calcimedica, Inc., priority 2008, dated 2013)

Tested on: JR251 or RBL cells
Experiment: Store-operated calcium entry, either JR251 or RBL cells, or both
Assay type: cell-based
Method in brief: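 FLIPR calcium-entry readout in fluo-4-loaded cells held in Ca2+-free HBSS before calcium add-back. For RBL-2H3, store depletion used thapsigargin for 25 min after a 5 min compound pre-incubation, and IC50 was based on the 7 s Upslope. For Orai1/STIM1 stable cells, compound was pre-incubated 30 min and IC50 was based on Peak-Basal.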

SMILES | IC50 [µM]
Cn1nc(C(=O)Nc2scc(-c3ccc(Cl)cc3)c2C(=O)O)cc1-c1ccccc1 [4-(4-chlorophenyl)-2-(1-methyl-5-phenyl-1H-pyrazole-3-carboxamido)thiophene-3-carboxylic acid] | < 10
O=C(Nc1scc(-c2ccc(Cl)cc2)c1C(=O)O)c1cnn(-c2ccccc2)c1 [4-(4-chlorophenyl)-2-(1-phenyl-1H-pyrazole-4-carboxamido)thiophene-3-carboxylic acid] | < 10
O=C(Nc1scc(-c2ccc(Cl)cc2)c1C(=O)O)c1cnn(-c2ccccc2)c1C(F)(F)F [4-(4-chlorophenyl)-2-(1-phenyl-5-(trifluoromethyl)-1H-pyrazole-4-carboxamido)thiophene-3-carboxylic acid] | < 10
O=C(O)c1c(-c2ccc(Cl)cc2)csc1NC(=O)C1Cc2ccccc2C1 [4-(4-chlorophenyl)-2-(2,3-dihydro-1H-indene-2-carboxamido)thiophene-3-carboxylic acid] | < 10
O=C(O)c1c(-c2ccc(Cl)cc2)csc1NC(=O)C1COc2ccccc2O1 (centres unmarked) [4-(4-chlorophenyl)-2-(2,3-dihydrobenzo[b][1,4]dioxine-2-carboxamido)thiophene-3-carboxylic acid] | < 10
O=C(O)c1c(-c2ccc(Cl)cc2)csc1NC(=O)C1Cc2ccccc2S1 (centres unmarked) [4-(4-chlorophenyl)-2-(2,3-dihydrobenzo[b]thiophene-2-carboxamido)thiophene-3-carboxylic acid] | < 10
O=C(Nc1scc(-c2ccc(Cl)cc2)c1C(=O)O)c1cc(Cl)sc1Cl [4-(4-chlorophenyl)-2-(2,5-dichlorothiophene-3-carboxamido)thiophene-3-carboxylic acid] | < 10
Cc1cc(C(=O)Nc2scc(-c3ccc(Cl)cc3)c2C(=O)O)c(C)o1 [4-(4-chlorophenyl)-2-(2,5-dimethylfuran-3-carboxamido)thiophene-3-carboxylic acid] | < 10
O=C(Nc1scc(-c2ccc(Cl)cc2)c1C(=O)O)c1ccc(Cl)nc1Cl [4-(4-chlorophenyl)-2-(2,6-dichloronicotinamido)thiophene-3-carboxylic acid] | < 10
COc1ccc(C(=O)Nc2scc(-c3ccc(Cl)cc3)c2C(=O)O)c(OC)n1 [4-(4-chlorophenyl)-2-(2,6-dimethoxynicotinamido)thiophene-3-carboxylic acid] | < 10
O=C(CC1CCc2ccccc21)Nc1scc(-c2ccc(Cl)cc2)c1C(=O)O (centres unmarked) [4-(4-chlorophenyl)-2-(2-(2,3-dihydro-1H-inden-1-yl)acetamido)thiophene-3-carboxylic acid] | < 10
O=Cc1sccc1OCC(=O)Nc1scc(-c2ccc(Cl)cc2)c1C(=O)O [4-(4-chlorophenyl)-2-(2-(2-formylthiophen-3-yloxy)acetamido)thiophene-3-carboxylic acid] | < 10
O=C(Nc1scc(-c2ccc(Cl)cc2)c1C(=O)O)c1cnc(C(F)(F)F)nc1 [4-(4-chlorophenyl)-2-(2-(trifluoromethyl)pyrimidine-5-carboxamido)thiophene-3-carboxylic acid] | < 10
O=C(O)c1c(-c2ccc(Cl)cc2)csc1NC(=O)C(F)Cc1ccccc1 (centres unmarked) [4-(4-chlorophenyl)-2-(2-fluoro-3-phenylpropanamido)thiophene-3-carboxylic acid] | < 10
CC(C(=O)Nc1scc(-c2ccc(Cl)cc2)c1C(=O)O)C(C)c1ccccc1 (centres unmarked) [4-(4-chlorophenyl)-2-(2-methyl-3-phenylbutanamido)thiophene-3-carboxylic acid] | < 10
CC(Cc1ccccc1)C(=O)Nc1scc(-c2ccc(Cl)cc2)c1C(=O)O (centres unmarked) [4-(4-chlorophenyl)-2-(2-methyl-3-phenylpropanamido)thiophene-3-carboxylic acid] | < 10
Cc1oc(-c2ccccc2)cc1C(=O)Nc1scc(-c2ccc(Cl)cc2)c1C(=O)O [4-(4-chlorophenyl)-2-(2-methyl-5-phenylfuran-3-carboxamido)thiophene-3-carboxylic acid] | < 10
O=C(COc1ccccc1)Nc1scc(-c2ccc(Cl)cc2)c1C(=O)O [4-(4-chlorophenyl)-2-(2-phenoxyacetamido)thiophene-3-carboxylic acid] | < 10
O=C(Cc1ccccc1)Nc1scc(-c2ccc(Cl)cc2)c1C(=O)O [4-(4-chlorophenyl)-2-(2-phenylacetamido)thiophene-3-carboxylic acid] | < 10
O=C(CC(c1ccccc1)c1ccccc1)Nc1scc(-c2ccc(Cl)cc2)c1C(=O)O [4-(4-chlorophenyl)-2-(3,3-diphenylpropanamido)thiophene-3-carboxylic acid] | < 10
Cc1noc(C)c1C(=O)Nc1scc(-c2ccc(Cl)cc2)c1C(=O)O [4-(4-chlorophenyl)-2-(3,5-dimethylisoxazole-4-carboxamido)thiophene-3-carboxylic acid] | < 10
O=C(CCc1ccc(F)cc1F)Nc1scc(-c2ccc(Cl)cc2)c1C(=O)O [4-(4-chlorophenyl)-2-(3-(2,4-difluorophenyl)propanamido)thiophene-3-carboxylic acid] | < 10

SMILES | IC50 [µM]
O=C(O)c1c(-c2ccc(Cl)cc2)csc1NC(=O)C(F)Cc1c(Cl)cccc1Cl (centres unmarked) [4-(4-chlorophenyl)-2-(3-(2,6-dichlorophenyl)-2-fluoropropanamido)thiophene-3-carboxylic acid] | < 10
O=C(CCc1c(Cl)cccc1Cl)Nc1scc(-c2ccc(Cl)cc2)c1C(=O)O [4-(4-chlorophenyl)-2-(3-(2,6-dichlorophenyl)propanamido)thiophene-3-carboxylic acid] | < 10
Cc1cccc(C)c1CCC(=O)Nc1scc(-c2ccc(Cl)cc2)c1C(=O)O [4-(4-chlorophenyl)-2-(3-(2,6-dimethylphenyl)propanamido)thiophene-3-carboxylic acid] | < 10
N#CC(Cc1ccccc1Cl)C(=O)Nc1scc(-c2ccc(Cl)cc2)c1C(=O)O (centres unmarked) [4-(4-chlorophenyl)-2-(3-(2-chlorophenyl)-2-cyanopropanamido)thiophene-3-carboxylic acid] | < 10
O=C(O)c1c(-c2ccc(Cl)cc2)csc1NC(=O)C(F)Cc1ccccc1Cl (centres unmarked) [4-(4-chlorophenyl)-2-(3-(2-chlorophenyl)-2-fluoropropanamido)thiophene-3-carboxylic acid] | < 10
O=C(CCc1ccccc1Cl)Nc1scc(-c2ccc(Cl)cc2)c1C(=O)O [4-(4-chlorophenyl)-2-(3-(2-chlorophenyl)propanamido)thiophene-3-carboxylic acid] | < 10
N#Cc1ccccc1CCC(=O)Nc1scc(-c2ccc(Cl)cc2)c1C(=O)O [4-(4-chlorophenyl)-2-(3-(2-cyanophenyl)propanamido)thiophene-3-carboxylic acid] | < 10
O=C(NCc1ccccc1F)Nc1scc(-c2ccc(Cl)cc2)c1C(=O)O [4-(4-chlorophenyl)-2-(3-(2-fluorobenzyl)ureido)thiophene-3-carboxylic acid] | < 10
O=C(CCc1ccccc1F)Nc1scc(-c2ccc(Cl)cc2)c1C(=O)O [4-(4-chlorophenyl)-2-(3-(2-fluorophenyl)propanamido)thiophene-3-carboxylic acid] | < 10
O=C(CCc1ccc(F)c(F)c1)Nc1scc(-c2ccc(Cl)cc2)c1C(=O)O [4-(4-chlorophenyl)-2-(3-(3,4-difluorophenyl)propanamido)thiophene-3-carboxylic acid] | < 10
O=C(CCc1cccc(Cl)c1)Nc1scc(-c2ccc(Cl)cc2)c1C(=O)O [4-(4-chlorophenyl)-2-(3-(3-chlorophenyl)propanamido)thiophene-3-carboxylic acid] | < 10
O=C(CCc1cccc(F)c1)Nc1scc(-c2ccc(Cl)cc2)c1C(=O)O [4-(4-chlorophenyl)-2-(3-(3-fluorophenyl)propanamido)thiophene-3-carboxylic acid] | < 10
O=C(CCc1ccc(Cl)cc1)Nc1scc(-c2ccc(Cl)cc2)c1C(=O)O [4-(4-chlorophenyl)-2-(3-(4-chlorophenyl)propanamido)thiophene-3-carboxylic acid] | < 10
O=C(CCc1ccc(F)cc1)Nc1scc(-c2ccc(Cl)cc2)c1C(=O)O [4-(4-chlorophenyl)-2-(3-(4-fluorophenyl)propanamido)thiophene-3-carboxylic acid] | < 10
O=C(NCC1CCCCC1)Nc1scc(-c2ccc(Cl)cc2)c1C(=O)O [4-(4-chlorophenyl)-2-(3-(cyclohexylmethyl)ureido)thiophene-3-carboxylic acid] | < 10
O=C(CCc1ccco1)Nc1scc(-c2ccc(Cl)cc2)c1C(=O)O [4-(4-chlorophenyl)-2-(3-(furan-2-yl)propanamido)thiophene-3-carboxylic acid] | < 10
O=C(CCc1cccs1)Nc1scc(-c2ccc(Cl)cc2)c1C(=O)O [4-(4-chlorophenyl)-2-(3-(thiophen-2-yl)propanamido)thiophene-3-carboxylic acid] | < 10
Cc1cccc2nc(C(=O)Nc3scc(-c4ccc(Cl)cc4)c3C(=O)O)c(F)n12 [4-(4-chlorophenyl)-2-(3-fluoro-5-methylimidazo[1,2-a]pyridine-2-carboxamido)thiophene-3-carboxylic acid] | < 10
CC(C)(CC(=O)Nc1scc(-c2ccc(Cl)cc2)c1C(=O)O)c1ccccc1 [4-(4-chlorophenyl)-2-(3-methyl-3-phenylbutanamido)thiophene-3-carboxylic acid] | < 10
Cc1ccsc1C(=O)Nc1scc(-c2ccc(Cl)cc2)c1C(=O)O [4-(4-chlorophenyl)-2-(3-methylthiophene-2-carboxamido)thiophene-3-carboxylic acid] | < 10
O=C(NCCc1ccccc1)Nc1scc(-c2ccc(Cl)cc2)c1C(=O)O [4-(4-chlorophenyl)-2-(3-phenethylureido)thiophene-3-carboxylic acid] | < 10
O=C(Nc1scc(-c2ccc(Cl)cc2)c1C(=O)O)c1c[nH]nc1-c1ccccc1 [4-(4-chlorophenyl)-2-(3-phenyl-1H-pyrazole-4-carboxamido)thiophene-3-carboxylic acid] | < 10
